Reference: patent US10512651B2, “Inhibition of MK2 in the treatment of cancer” (STC.UNM, priority 2014, dated 2019)

Key:
[1] = tested on: Caco-2 colon cancer cells; assay: Caco-2 scratch wound assay (proliferation and migration); type: cell-based; details: Caco-2 cells incubated with inhibitor, FIG. 9
Method: FIG. 9 is a graph showing that MK2 inhibition decreases colon cancer carcinoma cell proliferation. Incubating Caco-2 colon cancer cells with the MK2 inhibitor (MK2a) decreased proliferation and migration in a scratch wound assay.

[2] = tested on: neoplasms in AOM/DSS exposed mice; assay: AOM/DSS mouse model of colon cancer, neoplasm number after MK2 inhibitor treatment; type: in vivo; details: treated three times a week for three weeks; FIG. 10
Method: FIG. 10 is a graph showing that AOM/DSS exposed mice treated with MK2 inhibitors regresses neoplasms.
Mice: C57Bl/6 mice from Harlan Laboratories and the MK2^−/−tm1Mgl (8) mouse strain were bred under pathogen free conditions. Animal procedures were approved by the UNM IACUC. Azoxymethane (AOM), (Sigma Aldrich, St. Louis, Mo.) was injected […] into 6-8 week old female mice at 12.5 mg/kg. Dextran Sodium Sulfate (DSS), (MP Biomedicals, MW 36,000-50,000) was added to drinking water at 2.5% at days 5 and 26 and at 2.0% at day 47, 2.0% for 5 days sacrificed at day 80. Control mice received PBS IP and no DSS in water. Mouse Colon Supernatants: 8 mg (±0.5 mg) of cleaned colon tissues were incubated in complete RPMI with antibiotics for 12 hours. Supernatants were analyzed for cytokines by Luminex bead array (Millipore, Billerica, Mass.) according to manufacturer's instructions.

O=C(CCCc1ccc(-c2ccccc2F)cc1)Nc1ccc(O)cc1 [MK2a inhibitor]
migration in a scratch wound assay [1]: decreased | colon cancer carcinoma cell proliferation ([1]; scratch wound assay): decreased | neoplasms (number) in AOM/DSS exposed mice [2]: significantly less neoplasms
